PubChem BioAssay (NCI)
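Protocol summary: plate cells (96-well), add compound at 5 concentrations, incubate 48 h, interpolate endpoints linearly. The concentration for full growth arrest is given as TGI.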

Experiments:
Assay in all cases: NCI tumour cell line growth inhibition, 48 h
MDA-N = test system: MDA-N
PC-3 prostate = test system: PC-3 prostate
SF-268 CNS = test system: SF-268 CNS
SW-620 colon = test system: SW-620 colon
HCT-15 colon = test system: HCT-15 colon
SNB-75 CNS = test system: SNB-75 CNS
HOP-92 NSCLC = test system: HOP-92 NSCLC
A498 renal = test system: A498 renal
ACHN renal = test system: ACHN renal
IGROV1 ovarian = test system: IGROV1 ovarian
SN12C renal = test system: SN12C renal
DU-145 prostate = test system: DU-145 prostate
LOX IMVI melanoma = test system: LOX IMVI melanoma
SK-MEL-5 melanoma = test system: SK-MEL-5 melanoma
NCI-H23 lung = test system: NCI-H23 lung
OVCAR-4 ovarian = test system: OVCAR-4 ovarian
SF-295 CNS = test system: SF-295 CNS
M14 melanoma = test system: M14 melanoma
OVCAR-3 ovarian = test system: OVCAR-3 ovarian

Question: What does the source list for `CCOC(=O)c1sc2c(c1OC(=O)c1cccs1)c(=O)n(-c1ccccc1)c(=S)n2-c1ccccc1`?
Answer: TGI (MDA-N): > 100 µM; TGI (PC-3 prostate): 31.8 µM; TGI (SF-268 CNS): > 100 µM; TGI (SW-620 colon): 65.5 µM; TGI (HCT-15 colon): 43.4 µM; TGI (SNB-75 CNS): > 100 µM; TGI (HOP-92 NSCLC): 52.7 µM; TGI (A498 renal): 18.9 µM; TGI (ACHN renal): 37.6 µM; TGI (IGROV1 ovarian): 28 µM; TGI (SN12C renal): 42 µM; TGI (DU-145 prostate): 94.1 µM; TGI (LOX IMVI melanoma): 36.3 µM; TGI (SK-MEL-5 melanoma): 32 µM; TGI (NCI-H23 lung): 46.5 µM; TGI (OVCAR-4 ovarian): 27.5 µM; TGI (SF-295 CNS): > 100 µM; TGI (M14 melanoma): 33.4 µM; TGI (OVCAR-3 ovarian): 60.6 µM
